Entries after “also recorded” stand apart in the source; their conditions may differ. Where a SMILES comes first, the peptide text is derived from it. The star is where a group is joined. Palmitoyl = CCCCCCCCCCCCCCCC(=O)*
Key:
[1] = tested on: 3D7 line of P. falciparum; assay: Peptide inhibition of parasite growth (pLDH method); type: cell-based, Plasmodium falciparum; conditions: for Growth inhibition: 100 μM peptide, 48 hour and 72 hour time points, asynchronous cultures, 2% haematocrit, 0.8% initial parasitaemia, max 0.5% DMSO, pLDH activity; for Growth inhibition / Concentration-response relationship of growth inhibition / Growth inhibition (dose-response curves): means of three experiments in duplicate; for Concentration-response relationship of growth inhibition: ten concentrations between 10 μM and 100 μM; for Concentration-response relationship of growth inhibition / Growth inhibition (dose-response curves): 48 and 72 hours
Experimental: P. falciparum line 3D7, adapted to grow in Albumax® (BioSciences, Dun Laoghaire, Ireland), was cultured in human erythrocytes (Irish Blood Transfusion Board, Ireland) in standard growth medium, in candle jars. Fresh erythrocytes were obtained every three weeks and washed according to lab protocols. Staining of blood smears was with Giemsa stain. The number of infected erythrocytes was counted by microscopy and the parasitaemia was calculated.
The antimalarial activity of test peptides (ChinaPeptides Co. Ltd, Shanghai, China) was determined in culture on the 3D7 line of P. falciparum using the parasite lactate dehydrogenase (pLDH) method in 96-well microtitre plates with modifications as previously described. Each test peptide was initially evaluated at three different concentrations, 100 μM, 10 μM and 1 μM, to determine activity range. The effect of the compounds was evaluated at 48 and 72 hours on growth of asynchronous cultures (cultured as described in the previous section) of P. falciparum, determined by the assay of pLDH activity. We used unsynchronised cultures in order (i) to make no prior assumptions about the stage of growth that might be inhibited and (ii) to avoid possible inhibitory effects of the synchronising protocol, e.g. sorbitol treatment, separation techniques, etc. The appropriate dilutions of the compounds were prepared in DMSO and added to the cultures of P. falciparum (2% haematocrit, 0.8% initial parasitaemia and a maximum of 0.5% DMSO). The same methodology was then used to assess the dose-response curves of peptides 5, 7, 10, 11, 12, 13 using ten concentrations between 10 μM and 100 μM.

[2] = tested on: P. falciparum late stages (trophozoite/schizont) introduced to fresh erythrocytes; assay: Schizont to ring development assay; type: cell-based, Plasmodium falciparum; conditions: 100 μM peptide, 2 hours with magnetically purified schizonts, washed, fresh erythrocytes 14–16 hours; rings counted in Giemsa smears; two experiments in triplicate
Description: Routine erythrocytic P. falciparum cultures are an asynchronous culture consisting of rings, trophozoites, schizonts and merozoites. To enrich for the late stages of erythrocytic development, parasites at high parasitaemia (>15%) were subjected to magnetic selection. Parasitised erythrocytes were passed over a CS column (Miltenyi Biotec, Surrey, UK) which was mounted on a VarioMacs magnet (Miltenyi Biotec, Surrey, UK). The column was then washed with incomplete medium (RPMI 1640 supplemented with 25 mM HEPES, hypoxanthine [50 μg/ml], 0.16% w/v glucose) to remove unparasitised erythrocytes and was then removed from the magnet, a further wash with incomplete medium eluting late-stage parasitised erythrocytes.
Parasites synchronised to late stages (trophozoite/schizont) by magnetic selection were incubated with either the peptide being tested (100 μM concentration) or vehicle only control (DMSO) in complete medium for two hours. Treated schizonts were washed with complete medium and centrifugation at 350 xg for 10 minutes. Washing was repeated twice. Treated schizonts were then introduced to fresh erythrocytes at 2.5% hematocrit and incubated overnight (14–16 hours) with shaking. Parasitaemia was assessed by counting the number of ring stages in parasitised erythrocytes in Giemsa stained blood smears by light microscopy. This crude assay measures not just invasion but merozoite release and early ring-stage development.

[3] = tested on: erythrocytes from healthy human volunteers; conditions: 100 μM peptide; approx. 1.5 × 10^8 erythrocytes, 15 minutes at 37°C, buffer A pH 7.4; absorbance 405 nm; compared with 0.1% (v/v) Triton X-100 = 100%; duplicate, three donors
Experimental: The hemolytic activity of the peptides was investigated using erythrocytes from healthy human volunteers. Blood was collected in the presence of 15% anticoagulant acid citrate glucose (ACD) (38 mM citric acid, 75 mM sodium citrate, 124 mM glucose) and was centrifuged at 150 xg for 10 minutes at room temperature. Plasma was removed and erythrocytes were washed twice with buffer A (pH 7.4) (130 mM sodium chloride, 10 mM sodium citrate, 9 mM sodium biocarbonate, 6 mM glucose, 0.9 mM magnesium chloride, 0.81 mM potassium hydrogen phosphate, 10 mM Tris), by cenrifugation at 1,000 xg for 5 minutes and resuspended in the same buffer. For the hemolysis assay approximately 1.5 × 10^8 erythrocytes were incubated with solutions of peptides 5, 10 or 12-Cam at 100 μM and 10 μM concentrations for 15 minutes at 37°C. After incubation, samples were centrifuged at 1,000 xg for 5 minutes and the supernatant was analysed for the presence of hemoglobin at an absorbance of 405 nm. Complete hemolysis was achieved using 0.1% (v/v) Triton X-100 yielding the 100% control value. The assay was run in duplicate with three different donors.

[4] = reason for exclusion from further investigation

| Compound | Growth inhibition [1] | Concentration-response relationship of growth inhibition [1] | other results |
| --- | --- | --- | --- |
| CCCCCCCCCCCCCCCC(=O)O [Palmitate, reference compound] | no inhibitory effect | – | – |
| CCCCCCCCCCCCCCCC(=O)N[C@@H](CO)C(=O)N[C@@H](CO)C(=O)N[C@@H](CO)C(=O)N[C@@H](CCCNC(=N)N)C(=O)N[C@@H](CCCCN)C(=O)N[C@@H](CC(N)=O)C(=O)N[C@@H](CCCNC(=N)N)C(=O)N[C@@H](Cc1ccccc1)C(=O)N[C@@H](CCCNC(=N)N)C(=O)N[C@@H](Cc1ccc(O)cc1)C(=O)N[C@@H](CC(C)C)C(=O)N1CCC[C@H]1C(=O)N[C@@H](Cc1ccccc1)C(N)=O [Peptide 5] (Palmitoyl-SSSRKNRFRYLPF-NH2) | clearly observed | clear increases in growth inhibition with increasing concentration | Ability of merozoites to establish new infections in fresh erythrocytes (ring parasitaemia, % of control) [2]: almost totally reduced |
| CCCCCCCCCCCCCCCC(=O)N[C@@H](CCCNC(=N)N)C(=O)N[C@@H](CCCNC(=N)N)C(=O)N[C@@H](CC(C)C)C(=O)N[C@H](C(=O)N[C@@H](CCCCN)C(=O)N[C@@H](CCCCN)C(=O)N[C@@H](CO)C(=O)N1CCC[C@H]1C(N)=O)[C@@H](C)CC [Peptide 10] (Palmitoyl-RRLIKKSP-NH2) | clearly observed | clear increases in growth inhibition with increasing concentration | Release of haemoglobin from erythrocytes [3]: approximately 50%; Ability of merozoites to establish new infections in fresh erythrocytes (ring parasitaemia, % of control) [2]: not as significant as that of the other two peptides |
| CCCCCCCCCCCCCCCC(=O)N[C@@H](CO)C(=O)N[C@@H](Cc1ccc(O)cc1)C(=O)N[C@H](C(=O)N[C@H](C(=O)N[C@@H](CCCNC(=N)N)C(=O)N[C@@H](CCCNC(=N)N)C(=O)N[C@@H](CC(C)C)C(=O)N[C@H](C(=O)N[C@@H](CCCCN)C(=O)N[C@@H](C)C(N)=O)[C@@H](C)CC)[C@@H](C)CC)[C@@H](C)O [Peptide 12-Cam] (Palmitoyl-SYTIRRLIKA-NH2) | – | – | Growth inhibition of amidated peptide 12 versus its scrambled versions ([1]; 10 μM, 48 and 72 hours (Fig 4), three experiments in duplicate): more active than four scrambled controls |
| pal-AALQEPALQDAGESSRKEYFI [glycophorin-C peptide, palmitoylated peptide from glycophorin-C, preliminary testing only] | – | – | Activity in preliminary testing ([1]; preliminary testing, no further tests conducted): no activity |
| pal-KEEIIEIVFDENEEKYF [Peptide 7] | some growth inhibition; also recorded: moderate activity | – | Growth inhibition (dose-response curves) ([1]; 10 μM): no inhibition |
| pal-KHRKGNNA-NH2 [Peptide 13, palmitoylated, amidated peptide from complement receptor type 1] | some growth inhibition; also recorded: moderate activity | – | Growth inhibition (dose-response curves) ([1]; 10 μM): no inhibition |
| pal-KKKLYLYFE-NH2 [Peptide 3, shorter variation of peptide 2 from putative protein kinase Q8ILC4] | some growth inhibition | – | Solubility [4]: insolubility |
| pal-KRKLKEEQRTKKIKID [Peptide 4, palmitoylated peptide from putative calcium-transporting ATPase Q76NN8] | – | – | Antimalarial activity (overall, growth inhibition assay) ([1]; tested at 100 μM, 10 μM and 1 μM): inactive |
| pal-SYSIRRLIKA [Peptide 11, palmitoylated peptide from glycophorin-B] | some growth inhibition | no such clear effect | – |
| pal-SYTIRRLIKA [Peptide 12, palmitoylated peptide from glycophorin-B, common human polymorphism of peptide 11] | clearly observed | clear increases in growth inhibition with increasing concentration | Ability of merozoites to establish new infections in fresh erythrocytes (ring parasitaemia, % of control) [2]: almost totally reduced |

— paper PMC4454681, “Design and Evaluation of Antimalarial Peptides Derived from Prediction of Short Linear Motifs in Proteins Related to Erythrocyte Invasion” (PLoS ONE, 2015)
